Measured values reported in the kinase profiling compilation of Christmann-Franck et al. (2016).

Tests used:
Test in all cases: KINOMEscan competition binding
Conditions in all cases: compound 10.0 µM
[1] = molecular target: BMP2K (human) (UniProt Q9NSY1)
[2] = molecular target: CDK16 (human) (UniProt Q00536)
[3] = molecular target: CDK7 (human) (UniProt P50613)
[4] = molecular target: CLK2 (human) (UniProt P49760)
[5] = molecular target: CSNK1E (human) (UniProt P49674)
[6] = molecular target: CSNK2A1 (human) (UniProt P68400)
CSNK2A1 (human), sequence (P68400 whole entry, looked up): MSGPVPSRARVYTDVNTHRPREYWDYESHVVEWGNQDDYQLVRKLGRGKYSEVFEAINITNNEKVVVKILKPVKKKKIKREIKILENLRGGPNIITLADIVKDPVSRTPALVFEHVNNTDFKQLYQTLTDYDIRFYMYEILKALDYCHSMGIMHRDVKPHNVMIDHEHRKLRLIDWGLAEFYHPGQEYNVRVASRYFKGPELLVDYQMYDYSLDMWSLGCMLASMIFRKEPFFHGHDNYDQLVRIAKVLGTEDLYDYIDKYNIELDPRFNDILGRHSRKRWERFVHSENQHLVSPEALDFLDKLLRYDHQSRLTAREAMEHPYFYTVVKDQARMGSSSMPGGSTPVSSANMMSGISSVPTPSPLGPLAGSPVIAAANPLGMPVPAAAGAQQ

[7] = molecular target: DAPK2 (human) (UniProt Q9UIK4)
[8] = molecular target: DAPK3 (human) (UniProt O43293)
[9] = molecular target: DCLK3 (human) (UniProt Q9C098)
DCLK3 (human), sequence (Q9C098 whole entry, looked up): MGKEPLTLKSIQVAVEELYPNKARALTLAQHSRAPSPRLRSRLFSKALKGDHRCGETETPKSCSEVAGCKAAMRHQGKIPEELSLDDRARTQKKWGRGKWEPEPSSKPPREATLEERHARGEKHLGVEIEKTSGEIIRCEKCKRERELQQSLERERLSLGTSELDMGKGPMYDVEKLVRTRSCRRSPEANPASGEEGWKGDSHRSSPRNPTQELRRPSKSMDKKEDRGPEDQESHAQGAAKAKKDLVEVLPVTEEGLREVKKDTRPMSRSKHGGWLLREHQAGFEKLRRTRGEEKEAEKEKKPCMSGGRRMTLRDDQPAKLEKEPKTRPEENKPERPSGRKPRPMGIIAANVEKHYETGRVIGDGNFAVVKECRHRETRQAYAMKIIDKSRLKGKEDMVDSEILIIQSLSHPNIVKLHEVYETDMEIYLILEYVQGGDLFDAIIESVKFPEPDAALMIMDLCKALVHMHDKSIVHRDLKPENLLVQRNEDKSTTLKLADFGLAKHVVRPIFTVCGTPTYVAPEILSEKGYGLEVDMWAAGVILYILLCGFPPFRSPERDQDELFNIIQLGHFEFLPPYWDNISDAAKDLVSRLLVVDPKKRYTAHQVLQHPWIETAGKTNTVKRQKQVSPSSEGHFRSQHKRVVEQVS

[10] = tested on: FLT3 (human), P36888 [D835Y]
[11] = tested on: FLT3 (human), P36888 [N841I]
[12] = molecular target: JAK3 JH1 catalytic (human) (UniProt P52333)
[13] = tested on: KIT (human), P10721 [V559D/V654A]
[14] = molecular target: MAP2K4 (human) (UniProt P45985)
[15] = molecular target: MAP4K2 (human) (UniProt Q12851)
[16] = molecular target: MINK1 (human) (UniProt Q8N4C8)
MINK1 (human), sequence (Q8N4C8 whole entry, looked up): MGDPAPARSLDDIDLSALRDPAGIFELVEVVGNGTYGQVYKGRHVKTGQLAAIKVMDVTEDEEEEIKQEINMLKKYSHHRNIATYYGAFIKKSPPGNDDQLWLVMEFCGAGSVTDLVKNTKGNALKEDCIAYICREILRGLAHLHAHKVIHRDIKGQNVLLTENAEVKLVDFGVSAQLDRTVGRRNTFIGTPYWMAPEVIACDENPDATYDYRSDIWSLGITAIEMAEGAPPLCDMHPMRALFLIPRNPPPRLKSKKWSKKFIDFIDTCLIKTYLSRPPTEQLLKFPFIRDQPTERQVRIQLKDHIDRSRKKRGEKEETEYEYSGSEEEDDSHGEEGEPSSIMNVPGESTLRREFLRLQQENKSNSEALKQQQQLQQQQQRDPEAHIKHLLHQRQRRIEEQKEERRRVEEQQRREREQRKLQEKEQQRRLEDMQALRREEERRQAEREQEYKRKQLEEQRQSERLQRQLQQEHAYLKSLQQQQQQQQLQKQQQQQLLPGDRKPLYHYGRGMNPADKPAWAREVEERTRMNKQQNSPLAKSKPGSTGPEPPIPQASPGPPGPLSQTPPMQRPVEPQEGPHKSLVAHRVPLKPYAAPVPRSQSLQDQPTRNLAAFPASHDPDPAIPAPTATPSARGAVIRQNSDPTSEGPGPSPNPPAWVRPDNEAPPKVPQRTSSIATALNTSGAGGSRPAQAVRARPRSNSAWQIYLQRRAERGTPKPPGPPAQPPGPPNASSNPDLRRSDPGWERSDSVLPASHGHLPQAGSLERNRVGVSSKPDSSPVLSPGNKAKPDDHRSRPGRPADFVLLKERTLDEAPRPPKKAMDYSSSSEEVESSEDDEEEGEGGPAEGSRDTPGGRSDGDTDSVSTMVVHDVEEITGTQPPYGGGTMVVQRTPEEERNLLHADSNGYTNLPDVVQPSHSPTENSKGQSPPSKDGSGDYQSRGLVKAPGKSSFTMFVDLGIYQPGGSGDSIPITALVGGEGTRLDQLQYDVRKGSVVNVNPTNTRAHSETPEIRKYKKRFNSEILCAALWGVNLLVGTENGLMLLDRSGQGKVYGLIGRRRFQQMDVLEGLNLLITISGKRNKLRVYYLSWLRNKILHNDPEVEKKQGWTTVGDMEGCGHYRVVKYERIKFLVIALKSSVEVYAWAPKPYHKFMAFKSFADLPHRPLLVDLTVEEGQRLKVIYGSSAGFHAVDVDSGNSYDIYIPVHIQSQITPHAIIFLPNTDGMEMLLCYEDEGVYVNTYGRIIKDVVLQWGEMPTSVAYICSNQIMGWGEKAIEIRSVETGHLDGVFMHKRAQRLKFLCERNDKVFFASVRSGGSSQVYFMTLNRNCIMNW

[17] = molecular target: MYLK (human) (UniProt Q15746)
[18] = molecular target: MYLK4 (human) (UniProt Q86YV6)
[19] = molecular target: NEK2 (human) (UniProt P51955)
[20] = molecular target: PIM1 (human) (UniProt P11309)
[21] = molecular target: PIM3 (human) (UniProt Q86V86)
[22] = molecular target: PIP4K2B (human) (UniProt P78356)
[23] = molecular target: PIP5K1A (human) (UniProt Q99755)
[24] = molecular target: RPS6KA6 KD2 (human) (UniProt Q9UK32)
[25] = molecular target: STK17A (human) (UniProt Q9UEE5)
[26] = molecular target: TAOK1 (human) (UniProt Q7L7X3)
TAOK1 (human), sequence (Q7L7X3 whole entry, looked up): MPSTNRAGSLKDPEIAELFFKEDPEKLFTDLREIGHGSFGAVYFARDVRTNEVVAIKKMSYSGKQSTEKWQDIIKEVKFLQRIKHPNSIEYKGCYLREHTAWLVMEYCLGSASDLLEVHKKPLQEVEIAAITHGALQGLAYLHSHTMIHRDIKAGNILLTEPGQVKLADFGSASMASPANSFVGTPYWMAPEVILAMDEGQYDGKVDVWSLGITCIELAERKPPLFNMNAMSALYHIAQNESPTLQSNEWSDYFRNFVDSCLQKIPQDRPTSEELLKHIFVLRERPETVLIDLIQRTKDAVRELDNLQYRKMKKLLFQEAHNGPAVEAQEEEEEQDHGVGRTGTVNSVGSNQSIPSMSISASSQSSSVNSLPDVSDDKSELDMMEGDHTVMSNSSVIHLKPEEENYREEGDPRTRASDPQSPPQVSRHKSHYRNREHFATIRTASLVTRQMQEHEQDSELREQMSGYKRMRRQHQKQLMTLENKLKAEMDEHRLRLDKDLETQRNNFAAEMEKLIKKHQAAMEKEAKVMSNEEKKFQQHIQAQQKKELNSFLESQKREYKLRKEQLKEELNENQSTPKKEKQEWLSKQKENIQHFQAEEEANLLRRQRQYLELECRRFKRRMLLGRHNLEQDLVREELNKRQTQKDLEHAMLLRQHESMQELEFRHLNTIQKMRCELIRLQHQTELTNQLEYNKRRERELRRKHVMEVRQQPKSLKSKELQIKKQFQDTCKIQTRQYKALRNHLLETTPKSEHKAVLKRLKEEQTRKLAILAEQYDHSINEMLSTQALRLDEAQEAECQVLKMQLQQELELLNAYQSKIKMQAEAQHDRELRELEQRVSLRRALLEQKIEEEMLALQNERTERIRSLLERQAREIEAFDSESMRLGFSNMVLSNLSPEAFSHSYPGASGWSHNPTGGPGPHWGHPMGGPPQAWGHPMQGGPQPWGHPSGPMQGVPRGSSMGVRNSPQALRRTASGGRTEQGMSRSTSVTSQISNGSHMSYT

[27] = molecular target: TNK1 (human) (UniProt Q13470)
[28] = molecular target: ACVR2B (human) (UniProt Q13705)
[29] = tested on: KIT (human), P10721 [D816V]
[30] = tested on: KIT (human), P10721 [V559D/T670I]
[31] = molecular target: MKNK1 (human) (UniProt Q9BUB5)
[32] = molecular target: RIPK2 (human) (UniProt O43353)
[33] = molecular target: TGFBR2 (human) (UniProt P37173)
TGFBR2 (human), sequence (P37173 whole entry, looked up): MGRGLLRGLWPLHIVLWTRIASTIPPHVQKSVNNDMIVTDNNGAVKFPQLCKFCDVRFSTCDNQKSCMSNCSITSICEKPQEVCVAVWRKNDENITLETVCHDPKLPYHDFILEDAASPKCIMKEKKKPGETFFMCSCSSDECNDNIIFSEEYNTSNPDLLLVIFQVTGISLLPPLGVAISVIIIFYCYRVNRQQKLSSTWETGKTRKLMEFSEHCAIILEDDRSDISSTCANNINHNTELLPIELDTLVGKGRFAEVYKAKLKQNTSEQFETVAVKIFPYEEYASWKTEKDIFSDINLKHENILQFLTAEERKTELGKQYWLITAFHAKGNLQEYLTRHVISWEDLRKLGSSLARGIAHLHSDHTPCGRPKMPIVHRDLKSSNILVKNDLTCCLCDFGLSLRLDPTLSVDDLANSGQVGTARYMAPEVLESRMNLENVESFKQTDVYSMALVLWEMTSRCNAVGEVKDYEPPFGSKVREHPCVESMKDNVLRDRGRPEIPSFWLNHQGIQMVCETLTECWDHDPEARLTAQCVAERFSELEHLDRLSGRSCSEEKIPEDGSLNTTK

[34] = molecular target: CLK3 (human) (UniProt P49761)
[35] = molecular target: HIPK1 (human) (UniProt Q86Z02)
[36] = molecular target: SRPK2 (human) (UniProt P78362)
[37] = tested on: EGFR (human), P00533 [747-751 del / S ins]
[38] = molecular target: PHKG2 (human) (UniProt P15735)
[39] = molecular target: PRKD1 (human) (UniProt Q15139)
[40] = molecular target: DMPK (human) (UniProt Q09013)
[41] = tested on: KIT (human), P10721 [V559D]
[42] = molecular target: STK33 (human) (UniProt Q9BYT3)

BMP2K (human), sequence (Q9NSY1 whole entry, looked up): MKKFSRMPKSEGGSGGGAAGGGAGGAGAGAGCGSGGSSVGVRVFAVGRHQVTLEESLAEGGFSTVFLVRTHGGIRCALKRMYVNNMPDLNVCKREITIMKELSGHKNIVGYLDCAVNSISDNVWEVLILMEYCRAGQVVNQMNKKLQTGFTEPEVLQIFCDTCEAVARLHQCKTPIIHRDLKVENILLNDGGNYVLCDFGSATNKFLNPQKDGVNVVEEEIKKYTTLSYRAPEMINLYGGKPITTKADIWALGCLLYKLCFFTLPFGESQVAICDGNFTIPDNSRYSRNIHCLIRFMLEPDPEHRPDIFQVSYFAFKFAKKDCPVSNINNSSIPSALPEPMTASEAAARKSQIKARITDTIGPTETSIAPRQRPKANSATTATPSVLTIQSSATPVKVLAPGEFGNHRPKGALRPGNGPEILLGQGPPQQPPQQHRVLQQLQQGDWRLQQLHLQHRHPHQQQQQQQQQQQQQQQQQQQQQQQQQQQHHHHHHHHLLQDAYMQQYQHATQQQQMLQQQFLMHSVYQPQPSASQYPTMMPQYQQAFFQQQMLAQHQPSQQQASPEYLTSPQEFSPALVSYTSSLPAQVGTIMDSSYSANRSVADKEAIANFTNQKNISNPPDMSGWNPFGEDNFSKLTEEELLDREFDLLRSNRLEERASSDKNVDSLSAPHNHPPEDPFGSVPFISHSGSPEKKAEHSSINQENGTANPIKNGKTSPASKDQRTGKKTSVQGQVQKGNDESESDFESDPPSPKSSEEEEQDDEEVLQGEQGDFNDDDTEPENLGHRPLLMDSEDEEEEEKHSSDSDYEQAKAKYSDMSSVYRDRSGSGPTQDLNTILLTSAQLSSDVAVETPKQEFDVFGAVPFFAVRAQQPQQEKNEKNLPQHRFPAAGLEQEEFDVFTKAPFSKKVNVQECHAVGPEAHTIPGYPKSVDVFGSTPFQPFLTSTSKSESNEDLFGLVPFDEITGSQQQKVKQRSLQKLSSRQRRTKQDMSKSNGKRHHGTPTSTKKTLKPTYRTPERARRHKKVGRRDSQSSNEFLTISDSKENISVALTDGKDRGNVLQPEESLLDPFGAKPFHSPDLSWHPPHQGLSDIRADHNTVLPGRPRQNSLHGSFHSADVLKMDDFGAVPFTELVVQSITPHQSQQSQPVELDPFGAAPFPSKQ

SMILES	kinase still bound, per cent of control [1] [%]	kinase still bound, per cent of control [2] [%]	kinase still bound, per cent of control [3] [%]	kinase still bound, per cent of control [4] [%]	kinase still bound, per cent of control [6] [%]	kinase still bound, per cent of control [7] [%]	kinase still bound, per cent of control [8] [%]	kinase still bound, per cent of control [9] [%]	kinase still bound, per cent of control [10] [%]	kinase still bound, per cent of control [15] [%]	kinase still bound, per cent of control [16] [%]	kinase still bound, per cent of control [18] [%]	kinase still bound, per cent of control [20] [%]	kinase still bound, per cent of control [21] [%]	kinase still bound, per cent of control [25] [%]	kinase still bound, per cent of control [26] [%]	kinase still bound, per cent of control [28] [%]	kinase still bound, per cent of control [31] [%]	kinase still bound, per cent of control [33] [%]	kinase still bound, per cent of control [35] [%]	other results
CN1C(=O)[C@H]2CCC[C@H]2N(C2CCCC2)c2nc(Nc3ccc(C(N)=O)cc3)ncc21	12	18	3.7	1	25	8.6	33	1.4	2.6	13	1.8	30	6.8	6.4	0.05	8.7	–	–	–	–	kinase still bound, per cent of control [5]: 21%; kinase still bound, per cent of control [11]: 5.2%; kinase still bound, per cent of control [12]: 32%; kinase still bound, per cent of control [13]: 4.1%; kinase still bound, per cent of control [14]: 31%; kinase still bound, per cent of control [17]: 23%; kinase still bound, per cent of control [19]: 13%; kinase still bound, per cent of control [22]: 9.6%; kinase still bound, per cent of control [23]: 29%; kinase still bound, per cent of control [24]: 13%; kinase still bound, per cent of control [27]: 2%
CS(=O)(=O)Nc1ccc(-c2ncc(/C=C3\SC(=N)NC3=O)s2)cc1	29	–	–	–	–	3.2	6.9	22	12	29	1.3	–	2.8	2	2	–	16	13	12	–	kinase still bound, per cent of control [29]: 4.4%; kinase still bound, per cent of control [30]: 32%; kinase still bound, per cent of control [17]: 19%; kinase still bound, per cent of control [32]: 6.6%
CSC1=NC(=O)/C(=C/c2c[nH]c(=O)c(-c3ccc(NS(C)(=O)=O)cc3)c2)S1	2	–	30	9.5	1.6	3.6	6.2	–	–	7.7	–	–	13	16	5	–	–	–	14	2.2	kinase still bound, per cent of control [34]: 14%; kinase still bound, per cent of control [14]: 10%; kinase still bound, per cent of control [17]: 34%; kinase still bound, per cent of control [19]: 27%; kinase still bound, per cent of control [22]: 18%; kinase still bound, per cent of control [23]: 29%; kinase still bound, per cent of control [36]: 13%
N=C1NC(=O)/C(=C/c2ccc(-c3ccc(F)cc3O)o2)S1	–	0.1	0.95	2.8	–	4.1	8.6	1	–	–	24	8.1	3.8	4.7	0.3	0	16	15	5	0.15	kinase still bound, per cent of control [34]: 11%; kinase still bound, per cent of control [37]: 16%; kinase still bound, per cent of control [12]: 26%; kinase still bound, per cent of control [38]: 15%; kinase still bound, per cent of control [39]: 32%; kinase still bound, per cent of control [32]: 34%
CS(=O)(=O)Nc1ccc(-c2cncc(/C=C3\SC(=N)NC3=O)c2)cc1	22	–	–	–	–	14	25	0.9	3.8	5.8	4.4	29	–	–	0.45	1.4	4.2	0.55	1.7	19	kinase still bound, per cent of control [5]: 2.8%; kinase still bound, per cent of control [40]: 22%; kinase still bound, per cent of control [37]: 24%; kinase still bound, per cent of control [11]: 28%; kinase still bound, per cent of control [29]: 2.2%; kinase still bound, per cent of control [30]: 31%; kinase still bound, per cent of control [41]: 6%; kinase still bound, per cent of control [39]: 22%; kinase still bound, per cent of control [32]: 1.4%; kinase still bound, per cent of control [42]: 18%; kinase still bound, per cent of control [27]: 28%
N=C1NC(=O)/C(=C/c2ccc(-c3ccc(C(N)=O)cc3O)o2)S1	–	0.65	1	19	5.8	24	25	2.7	–	–	–	6	3	5.4	0.3	2.2	22	13	9	0.35	kinase still bound, per cent of control [34]: 4.2%; kinase still bound, per cent of control [40]: 14%; kinase still bound, per cent of control [12]: 32%
